Assays:
[1] = system: A. pittii Tü21‐041 (clinical isolate); test: microbe, parasite or virus in culture; assay type: cell-based; settings: Acinetobacter pittii; A. pittii Tü21‐041; median (n = 3); read-out: MIC
Summary of the method: (§1)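 Susceptibility is determined by broth microdilution, with inocula of 5 × 10^5 CFU mL^−1 in cation-adjusted MHB II and 20 h incubation at 37 ± 1 °C. For inhibitor combinations, clavulanic acid (2 mg L^−1) or avibactam (4 mg L^−1) is held constant following EUCAST guidance.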

[2] = system: K. pneumoniae BL809453 (KPC); test: microbe, parasite or virus in culture; assay type: cell-based; settings: Klebsiella pneumoniae, 20 h, combinations: avibactam fixed 4 mg L^−1, clavulanic acid 2 mg L^−1, median (n = 3)
Summary of the method: as §1

PBP1A/B = PBP1A/B (Bacillus subtilis, UniProt P39793); test: Gel‐based PBP affinity assay (Bocillin FL competition); assay type: binding; settings: B. subtilis membrane fractions, competition with Bocillin FL penicillin
Sequence of PBP1A/B (P39793 1-662): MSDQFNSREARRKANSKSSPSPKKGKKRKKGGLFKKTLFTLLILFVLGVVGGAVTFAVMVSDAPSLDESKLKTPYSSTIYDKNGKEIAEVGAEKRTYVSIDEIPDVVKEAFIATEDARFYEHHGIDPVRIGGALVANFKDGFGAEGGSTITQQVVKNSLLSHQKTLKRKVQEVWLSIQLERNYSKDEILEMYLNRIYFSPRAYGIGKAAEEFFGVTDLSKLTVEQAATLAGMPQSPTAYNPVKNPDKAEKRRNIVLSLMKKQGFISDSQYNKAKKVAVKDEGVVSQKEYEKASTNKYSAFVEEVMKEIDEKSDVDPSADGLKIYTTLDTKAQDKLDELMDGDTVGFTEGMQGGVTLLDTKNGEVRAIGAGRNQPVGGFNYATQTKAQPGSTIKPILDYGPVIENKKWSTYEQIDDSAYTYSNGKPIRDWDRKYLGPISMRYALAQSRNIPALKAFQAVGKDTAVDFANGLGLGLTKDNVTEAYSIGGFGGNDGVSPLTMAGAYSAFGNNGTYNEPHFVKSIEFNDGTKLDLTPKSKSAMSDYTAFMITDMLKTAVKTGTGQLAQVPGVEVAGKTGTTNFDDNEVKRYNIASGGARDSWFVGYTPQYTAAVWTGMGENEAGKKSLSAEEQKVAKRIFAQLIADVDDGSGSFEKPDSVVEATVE
Procedure: (§2) B. subtilis DSM 10 and E. faecalis ATCC 51 299 (equal to DSM 12 956) membrane protein fractions were extracted according to the protocol of Dean et al. with minor modifications.^[ [34] ^] From a growing overnight bacterial culture, 3 L of LB (Luria‐Bertani) medium or TSB (tryptic soy broth) were inoculated with B. subtilis DSM 10 and E. faecalis ATCC 51 299, respectively, to obtain an OD600 = 0.3. The cultures were grown to an OD600 = 0.6–0.8 while shaking at 37 °C and cells were harvested by centrifugation at 4000 g for 30 min at 4 °C. The resulting pellet was washed twice with pre‐cooled PBS and resuspended in 30 mL of ice‐cooled PBS. The suspension was sonicated on ice (10 cycles of 30 s at 50% power for B. subtilis; 12 cycles of 30 s at 80% power for E. faecalis; 2 min intervals between cycles) using an Omni Ruptor 4000 ultrasonic homogenizer (Omni International, Kennesaw, GA, USA). Afterwards, the suspension was centrifuged at 7000 g for 10 min at 4 °C. The clear supernatant was transferred into a 50 mL polypropylene tube and centrifuged in a Beckman Coulter centrifuge equipped with a JA‐20 fixed‐angle rotor (Beckman Coulter, Krefeld, Germany) at 50 000 g for 1 h at 4 °C. The resulting pellet was washed with ice‐cold PBS and centrifuged a second time. The pellet was resuspended in 2 mL PBS and aliquots were stored at −80 °C. The protein content was determined using Bradford reagent (VWR International, Darmstadt, Germany) and Pierce BCA (bicinchoninic acid) protein assay kits (Thermo Fisher Scientific, Waltham, MA, USA) for membrane fractions of B. subtilis and E. faecalis, respectively.
(§3) Each dilution was combined with B. subtilis (30 µg) or E. faecalis (15 µg) extracted membrane fractions. As reference samples, membrane fractions incubated with only PBS were prepared. Reaction mixtures were incubated for 20 min at 37 °C while shaking at 400 rpm. Next, Bocillin FL penicillin (Thermo Fisher Scientific, Waltham, MA, USA) was added to obtain a final concentration of 20 µM in the mixture. Samples were incubated for 30 min at 37 °C while shaking at 400 rpm. To denature the samples, 4× Laemmli sample buffer (Bio‐Rad Laboratories, Feldkirchen, Germany) was added, and the samples incubated for 10 min at 70 °C. Afterwards, the samples were centrifuged for 5 min at 13 000 rpm. Samples were separated by SDS‐PAGE using a 10% Tris‐glycine gel for 100 min at 180 V. The bands were visualized using a Typhoon FLA 9500 imager (GE Healthcare, Chicago, IL, USA) with excitation at 473 nm. The gel images were analyzed using ImageJ software. Brightness and contrast were adjusted to improve the signal‐to‐noise ratio and the background signal was subtracted over the whole image. Next, integrated density values of the gel bands were measured and Bocillin FL penicillin labeling of each PBP in antibiotic‐treated samples were set in proportion to the reference sample. IC50 values were calculated with GraphPad Prism software (version 8.0.1) using inhibitor versus normalized response variable slope and least‐squares fit. […] The mean was calculated using the IC50 values of at least two independent assays for each antibiotic.

PBP4 = biological target: T1, PBP4 (Bacillus subtilis, UniProt P40750); test: as above; assay type: binding; settings: B. subtilis membrane fractions, competition with Bocillin FL penicillin
T1 construct: endogenous in cells; host or cells: B. subtilis DSM 10, extracted membrane protein fraction
T1 sequence (P40750 22-624): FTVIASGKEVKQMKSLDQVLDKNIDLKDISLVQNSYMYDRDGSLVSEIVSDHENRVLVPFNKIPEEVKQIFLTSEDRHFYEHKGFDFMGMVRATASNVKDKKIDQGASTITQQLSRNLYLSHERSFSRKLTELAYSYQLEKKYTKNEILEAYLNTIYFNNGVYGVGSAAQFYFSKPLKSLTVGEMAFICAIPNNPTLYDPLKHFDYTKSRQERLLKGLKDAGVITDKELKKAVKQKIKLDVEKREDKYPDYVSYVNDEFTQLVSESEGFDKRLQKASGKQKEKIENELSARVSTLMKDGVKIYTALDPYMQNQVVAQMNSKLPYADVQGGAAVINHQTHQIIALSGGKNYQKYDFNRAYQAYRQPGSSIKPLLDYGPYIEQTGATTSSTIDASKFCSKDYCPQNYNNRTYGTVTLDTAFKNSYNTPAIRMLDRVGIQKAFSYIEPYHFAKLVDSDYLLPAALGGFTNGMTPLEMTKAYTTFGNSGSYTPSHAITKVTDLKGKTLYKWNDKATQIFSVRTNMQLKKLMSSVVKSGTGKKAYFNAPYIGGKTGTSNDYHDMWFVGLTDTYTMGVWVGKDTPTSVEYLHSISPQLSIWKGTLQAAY
Procedure: as §2, §3

PBP2B = biological target: T2, PBP2B (Bacillus subtilis, UniProt Q07868); test: as above; assay type: binding; settings: B. subtilis membrane fractions, competition with Bocillin FL penicillin
T2 construct: endogenous in cells; host or cells: B. subtilis DSM 10, extracted membrane protein fraction
T2 sequence (Q07868 whole entry): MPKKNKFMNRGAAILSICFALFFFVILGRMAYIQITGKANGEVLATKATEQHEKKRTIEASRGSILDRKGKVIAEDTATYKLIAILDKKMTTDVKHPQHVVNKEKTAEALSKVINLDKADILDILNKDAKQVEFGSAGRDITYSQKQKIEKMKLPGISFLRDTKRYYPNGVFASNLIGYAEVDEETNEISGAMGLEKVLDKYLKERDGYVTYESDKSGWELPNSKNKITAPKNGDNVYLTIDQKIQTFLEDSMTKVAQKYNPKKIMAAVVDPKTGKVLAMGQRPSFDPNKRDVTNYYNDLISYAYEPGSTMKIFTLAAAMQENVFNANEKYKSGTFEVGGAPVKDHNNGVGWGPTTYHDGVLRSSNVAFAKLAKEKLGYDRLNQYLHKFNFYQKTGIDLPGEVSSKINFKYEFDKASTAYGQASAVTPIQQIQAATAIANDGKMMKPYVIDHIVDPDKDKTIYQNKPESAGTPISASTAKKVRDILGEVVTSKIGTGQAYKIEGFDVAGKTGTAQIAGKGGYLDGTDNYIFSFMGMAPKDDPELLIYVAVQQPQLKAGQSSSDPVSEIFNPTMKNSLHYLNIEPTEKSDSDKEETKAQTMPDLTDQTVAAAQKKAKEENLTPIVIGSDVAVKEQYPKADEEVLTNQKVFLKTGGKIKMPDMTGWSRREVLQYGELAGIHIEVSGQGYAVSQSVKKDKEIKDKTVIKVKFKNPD
Procedure: as §2, §3

[3] = system: E. casseliflavus (ATCC 700 327); test: Spontaneous resistance rate; assay type: cell-based; settings: E. casseliflavus ATCC 700 327, agar with 16 µg mL^−1 CTZ‐R6
Procedure: The rate of spontaneous resistance of E. casseliflavus (ATCC 700 327) against CTZ‐R6 was investigated as previously described.^[ [33] ^] A bacterial suspension of ATCC 700 327 was adjusted to an OD600 of 1 with 0.9% NaCl, corresponding to a theoretical concentration of 2 × 10^8 CFU mL^−1. 250 µL of the suspension were plated on 10 cation‐adjusted MHB II agar plates containing 16 µg mL^−1 CTZ‐R6 and incubated at 37 °C for 18 h. As concentration control, the bacterial inoculum (OD600 = 1) was diluted and plated on antibiotic‐free cation adjusted MHB II agar plates and incubated at 37 °C for 18 h. The number of colonies on both types of plates was counted and the spontaneous resistance rate was calculated accordingly: (2) SpontaneousResistanceRate=#coloniesonantibioticplates/#coloniesoncontrolplatexdilutionfactorx2.5

[4] = system: CTZ‐resistant A. baumannii (n = 4); assay type: cell-based
Procedure: (§4) The minimum inhibitory concentration (MIC) of the β‐lactam–peptide conjugates was determined by broth microdilution as previously described.^[ [17] ^] Briefly, in cation‐adjusted MHB II medium, a twofold serial dilution of the compounds was prepared in 96‐well round‐bottom polystyrene or polypropylene microtiter plates with each well containing 50 µL. The plates were inoculated with 50 µL bacterial suspension and the final inoculum, in a total volume of 100 µL, contained 5 × 10^5 CFU mL^−1. The microplates were incubated for 20 h at 37 ± 1 °C. The lowest concentration preventing visible bacterial growth was considered the MIC value. For susceptibility testing of combinations of β‐lactamase‐inhibitors with either a β‐lactam antibiotic or a β‐lactam–peptide conjugate, fixed concentrations of the inhibitors according to the EUCAST (European Committee on Antimicrobial Susceptibility Testing) guidelines (clavulanic acid = 2 mg L^−1, avibactam = 4 mg L^−1) were used.

[5] = system: CTZ‐resistant C. freundii (n = 3); assay type: cell-based; settings: 20 h
Procedure: as §4

E. faecalis (vanB) = test: MIC compared with parent β‐lactam; assay type: cell-based; settings: on a molar level
Procedure: as §4

Gram‐positive bacteria = test: MIC compared with parent β‐lactam; assay type: cell-based
Procedure: as §4

[6] = system: Enterobacteriaceae (CTZ‐resistant); test: MIC compared with parent β‐lactam; assay type: cell-based
Procedure: as §4

Gram‐negative bacteria = test: MIC compared with parent β‐lactam; assay type: cell-based
Procedure: as §4

| SMILES | MIC [1] [µg/mL] | MIC [2] [µg/mL] | binding to PBP1A/B (PBP1A/B) | binding to PBP4 (PBP4) | binding to PBP2B (PBP2B) | spontaneous resistance rate [3] | MIC range ([4]; CTZ‐resistant (n = 4, 20 h)) [µg/mL] | increase in antimicrobial activity versus CTZ ([4]; CTZ‐resistant A. baumannii) [fold] | MIC range [5] [µg/mL] | increase in antimicrobial activity versus CTZ (E. faecalis (vanB)) [fold] | increase in antimicrobial activity versus CTZ (factor) (Gram‐positive bacteria) | increase in antimicrobial activity versus CTZ [6] | increase in antimicrobial activity versus CTZ (factor) (Gram‐negative bacteria) |
| --- | --- | --- | --- | --- | --- | --- | --- | --- | --- | --- | --- | --- | --- |
| CC(C)(O/N=C(\C(=O)N[C@@H]1C(=O)N2C(C(=O)[O-])=C(C[n+]3ccccc3)CS[C@H]12)c1csc(N)n1)C(=O)O [CTZ, ceftazidime, reference compound] | 4 | > 64 | strong binding | strong binding | strong binding |  |  |  |  |  |  |  |  |
| CC(C)(O/N=C(\C(=O)N[C@@H]1C(=O)N2C(C(=O)[O-])=C(C[n+]3ccccc3)CS[C@H]12)c1csc(N)n1)C(=O)NCCCCCCN1C(=O)CC(SC[C@H](NC(=O)[C@H](CCCNC(=N)N)NC(=O)[C@H](CCCNC(=N)N)NC(=O)[C@H](CCCNC(=N)N)NC(=O)[C@H](CCCNC(=N)N)NC(=O)[C@H](CCCNC(=N)N)NC(=O)[C@@H](N)CCCNC(=N)N)C(N)=O)C1=O (stereo partly shown) [CTZ-R6] |  |  | decreased in comparison to CTZ | decreased in comparison to CTZ | showed affinity | < 2.7 × 10^−9 | 4 to 16 | ~16 | 0.5 to 64 | ~300 | ≈ 1000 | ca. fourfold | 2–32 |

Reference: paper PMC11672299, “Conjugation of Polycationic Peptides Extends the Efficacy Spectrum of β‐Lactam Antibiotics” (Advanced Science, 2024)
